According to PubChem BioAssay (NCI):
Values joined by “and” are separate entries in the source; they are usually repeats but may differ in a detail not shown here. Equal entries are not always repeated.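 1) Cells in 96-well plates. 2) Compound, 48 h, 5 concentrations. 3) Linear interpolation between surrounding doses. 4) Unreached endpoint = highest concentration. GI50 marks 50% less growth. At the TGI there is no net growth.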

Legend:
Test in all cases: inhibition of tumour cell growth, NCI panel, 48 h
OVCAR-3 ovarian = tested on: OVCAR-3 ovarian
EKVX NSCLC = tested on: EKVX NSCLC
BT-549 breast = tested on: BT-549 breast
NCI-H460 lung = tested on: NCI-H460 lung
IGROV1 ovarian = tested on: IGROV1 ovarian
SF-295 CNS = tested on: SF-295 CNS
SNB-19 CNS = tested on: SNB-19 CNS
SF-539 CNS = tested on: SF-539 CNS
SR leukemia = tested on: SR leukemia
ACHN renal = tested on: ACHN renal

SMILES	TGI (OVCAR-3 ovarian)	TGI (EKVX NSCLC)	TGI (BT-549 breast)	TGI (NCI-H460 lung)	TGI (IGROV1 ovarian)	TGI (SF-295 CNS)	TGI (SNB-19 CNS)	TGI (SF-539 CNS)	TGI (SR leukemia)	TGI (ACHN renal)	GI50 (OVCAR-3 ovarian)	GI50 (EKVX NSCLC)	GI50 (BT-549 breast)	GI50 (NCI-H460 lung)	GI50 (IGROV1 ovarian)	GI50 (SF-295 CNS)	GI50 (SNB-19 CNS)	GI50 (SF-539 CNS)	GI50 (SR leukemia)	GI50 (ACHN renal)
CN(N=O)c1ccc(/C=C/c2ccnc3ccccc23)cc1	> 100 µM	> 100 µM	> 100 µM	> 100 µM	> 100 µM	> 100 µM	> 100 µM	> 100 µM	> 100 µM	> 100 µM	–	–	–	–	–	–	–	–	–	–
O=C1c2ccccc2-c2cn(Cc3ccccc3)c3cccc(c23)C1c1cccnc1 (stereo not given)	4.95 µM	> 50 µM	> 50 µM	> 50 µM	> 50 µM	> 50 µM	> 50 µM	> 50 µM	> 50 µM	> 50 µM	1.8 µM	9.61 µM	6.62 µM	1.9 µM	3.41 µM	2.02 µM	14.3 µM	5.67 µM	1.78 µM	12.1 µM
COc1ccc([C@@H]2[C@@H](Cl)C(=O)N2c2cc(OC)c(OC)c(OC)c2)cc1C	0.0581 µM	> 100 µM	1.13 µM	14.4 µM	72.4 µM	39.7 µM	> 100 µM	14.6 µM	54.4 µM	30.3 µM	0.0241 µM	0.0659 µM	0.0717 µM	0.313 µM	0.0849 µM	0.0501 µM	0.0535 µM	0.0293 µM	0.0397 µM	0.121 µM
ClC/C=C/CSc1ncnc2nc[nH]c12	> 100 µM	> 100 µM	> 100 µM	> 100 µM	> 100 µM	> 100 µM	> 100 µM	> 100 µM	> 100 µM	> 100 µM	> 100 µM	> 100 µM	> 100 µM	> 100 µM	> 100 µM	> 100 µM	> 100 µM	> 100 µM	> 100 µM	> 100 µM
COC(=O)[C@]12CC[C@@H](C)[C@H](C)[C@@H]1C1=CC[C@@H]3[C@@]4(C)C[C@@H](OC(C)=O)[C@H](OC(C)=O)[C@@](C)(COC(C)=O)[C@@H]4[C@H](O)C[C@@]3(C)[C@]1(C)CC2	> 100 µM	> 100 µM	81.4 µM	16.2 µM	> 100 µM	> 100 µM	> 100 µM	> 100 µM	9.4 µM	> 100 µM	2.3 µM	2.14 µM	1.4 µM	0.505 µM	2.17 µM	2.84 µM	3.54 µM	3.92 µM	0.465 µM	2.71 µM
COc1ccc(/C=C\c2cc(OC)c(OC)c(OC)c2)cc1NC(=O)/C=C/c1cc(OC)c(OC)c(OC)c1	> 100 µM	> 100 µM	77.4 µM	> 100 µM	> 100 µM	–	> 100 µM	> 100 µM	> 100 µM	> 100 µM	5.62 µM	> 100 µM	7.96 µM	3.61 µM	9.47 µM	–	5.64 µM	3.95 µM	0.854 µM	6.76 µM
COc1oc(C2C/C(=C/C(C)=C/C(C)=C/C(C)=C/c3ccc([N+](=O)[O-])cc3)CO2)c(C)c(=O)c1C (stereo not given)	54.9 µM	82.6 µM	17.4 µM	15.8 µM	42.5 µM	34.7 µM	73.7 µM	33.4 µM	3 µM	6.58 µM	–	–	–	–	–	–	–	–	–	–
CSc1ccc(-c2cn3ccsc3n2)cc1	> 100 µM	> 100 µM	> 100 µM	> 100 µM	> 75.5 µM	> 86 µM	> 100 µM	> 75.3 µM	> 60.8 µM	> 100 µM	> 28.6 µM	36.2 µM	> 60.5 µM	3.71 µM	5.73 µM	19 µM	43.5 µM	16.9 µM	1.25 µM	5.84 µM
NS(=O)(=O)c1cccc(Nc2cc(-c3ccc(F)cc3)[nH]n2)c1	> 25 µM	> 25 µM	> 25 µM	> 25 µM	> 25 µM	> 25 µM	> 25 µM	> 25 µM	> 25 µM	> 25 µM	19.5 µM	> 25 µM	> 23.9 µM	13.8 µM	19.3 µM	> 25 µM	> 25 µM	15.1 µM	12.5 µM	13.2 µM
CCOC(=O)Nc1cc2c(c(N)n1)N=C(c1ccc(Cl)cc1Cl)CN2	0.0133 µM	31.9 µM	33.1 µM	6.3 µM	34.3 µM	0.0108 µM	23.2 µM	0.0475 µM	> 100 µM	20.8 µM	–	–	–	–	–	–	–	–	–	–
COc1cc(F)c(F)c(Nc2ccc(I)cc2F)c1NS(=O)(=O)C1(CC(O)CO)CC1 (stereo not given)	36.4 µM	57.2 µM	35.2 µM	33.2 µM	34.4 µM	32.5 µM	50.1 µM	33.8 µM	> 69.4 µM	> 73.9 µM	14.6 µM	13.4 µM	14.6 µM	13.9 µM	10.4 µM	15 µM	11 µM	15.8 µM	15.7 µM	17 µM
COC(=O)C(=O)C(C(=O)C(=O)Nc1cc(C)ccc1C)c1nc2ccccc2[nH]c1=O (stereo not given)	> 100 µM	> 100 µM	> 100 µM	> 100 µM	> 100 µM	> 100 µM	> 100 µM	> 100 µM	> 100 µM	> 100 µM	–	–	–	–	–	–	–	–	–	–
Oc1ccccc1/C=N\NC(=S)Nc1ccc(F)cc1	> 69 µM	> 50.4 µM	> 89.9 µM	18.1 µM	17.7 µM	–	> 100 µM	32.3 µM	10.5 µM	> 100 µM	0.41 µM	3.91 µM	2.35 µM	0.446 µM	1.31 µM	1.38 µM	2.32 µM	2.12 µM	0.415 µM	0.674 µM
CC/C(=C/c1ccc(OC)cc1)[N+](=O)[O-]	3.35 µM	27.2 µM	6.42 µM	4.47 µM	8.16 µM	23.3 µM	7.93 µM	3.38 µM	7.65 µM	3.21 µM	1.86 µM	14.2 µM	2.42 µM	2.11 µM	2.82 µM	11.3 µM	2.77 µM	1.82 µM	2.31 µM	1.71 µM
COc1cccc(/C=C\C(=O)c2ccccc2)c1	13.4 µM	–	24.3 µM	22.3 µM	21.2 µM	27.5 µM	24.4 µM	24.1 µM	> 100 µM	23.4 µM	3.04 µM	–	10.8 µM	4.02 µM	3.19 µM	8.45 µM	7.68 µM	10.7 µM	8.89 µM	7.34 µM
CC1(C)C2CC(=O)C1(C)C(OCc1ccccc1)C2Br (stereo not given)	37.1 µM and > 100 µM	> 100 µM	67.4 µM and > 100 µM	43.5 µM and > 100 µM	> 100 µM	70.9 µM and > 100 µM	> 100 µM	68.4 µM and > 100 µM	52.8 µM and 66.1 µM	> 100 µM	19.3 µM and 53.4 µM	–	26.6 µM and 54.3 µM	20.2 µM and 48.5 µM	–	–	47.2 µM and > 100 µM	25.9 µM and > 100 µM	–	38.5 µM and 93.9 µM
CC[C@H](C)[C@H](NC(=O)CN(C)C)C(=O)N(C)[C@H](C[C@@H](OC(C)=O)c1nc(C(=O)NC23C4C5C2C2C3C4C52C(=O)OC)cs1)C(C)C (stereo not given in full)	1.31 µM	> 33.2 µM	> 20.1 µM	> 33.2 µM	> 33.2 µM	> 33.2 µM	> 33.2 µM	> 14.1 µM	> 33.2 µM	> 33.2 µM	0.113 µM	2.54 µM	0.431 µM	0.814 µM	0.428 µM	0.552 µM	1.31 µM	0.462 µM	0.038 µM	2.25 µM
COc1ccc(/C(=C(\c2ccccc2)[N+](=O)[O-])c2ccc(OCCN3CCCC3)cc2)cc1	16.2 µM	21.5 µM	17.6 µM	4.69 µM	17.3 µM	5.39 µM	18.6 µM	3.42 µM	5.05 µM	18.6 µM	3.93 µM	7.29 µM	4.51 µM	2.02 µM	3.57 µM	1.93 µM	5.61 µM	1.39 µM	1.49 µM	6.32 µM
COc1cc(/C=N/NC(=O)c2cnn3c2NC(c2ccccc2)C3)ccc1OCc1ccccc1 (stereo not given)	1.34 µM	12.4 µM	4.85 µM	1.66 µM	7.26 µM	2.11 µM	13.7 µM	2.29 µM	5.05 µM	6.99 µM	0.331 µM	1.48 µM	0.571 µM	0.437 µM	0.992 µM	0.453 µM	1.25 µM	0.524 µM	0.214 µM	0.903 µM
CCCCCCCCCC(=O)Oc1ccc(/C(=C(/C)c2ccccc2)c2ccc(OCCN3CCCC3)cc2)cc1	16.1 µM	13.6 µM	16.8 µM	15.9 µM	19.5 µM	15.1 µM	17.7 µM	16.9 µM	19 µM	15.5 µM	8.18 µM	6.92 µM	8.22 µM	8.46 µM	8.67 µM	7.93 µM	9.04 µM	8.7 µM	9.08 µM	8.16 µM
O=C(NOCCO)c1ccc2cncn2c1Nc1ccc(I)cc1F	> 100 µM	> 10 µM	> 91.7 µM	> 100 µM	> 100 µM	> 100 µM	> 100 µM	> 100 µM	> 100 µM	> 100 µM	> 10 µM and 32.7 µM	0.0629 µM	> 10 µM and 11.1 µM	> 10 µM and 21.9 µM	0.013 µM and 0.0532 µM	> 56.5 µM	> 10 µM and 1.99 µM	> 10 µM and 12.4 µM	> 10 µM and 19.1 µM	0.3 µM
COc1cc(C2c3cc4c(cc3[C@@H](Nc3ccc(F)cc3)C3COC(=O)[C@H]23)OCO4)cc(OC)c1O (stereo not given in full)	29.5 µM	12.5 µM	8.39 µM	4.11 µM	42.2 µM	7.26 µM	33.9 µM	6.02 µM	0.612 µM and 4.27 µM	3.39 µM	–	–	–	0.124 µM	–	0.548 µM	0.569 µM	0.708 µM	0.0567 µM	0.326 µM
COc1cc(OC)c(/C=C/S(=O)(=O)Cc2ccc(OC)c(N)n2)c(OC)c1	< 0.01 µM	> 100 µM	> 100 µM	–	> 100 µM	> 100 µM	> 100 µM	< 0.01 µM	> 100 µM	> 100 µM	< 0.01 µM	0.0278 µM	< 0.01 µM	< 0.01 µM	< 0.0122 µM	< 0.01 µM	–	< 0.01 µM	< 0.01 µM	< 0.01 µM
COC(=O)c1sc(-n2cnc3cc(OC)c(OC)cc32)cc1OCc1ccccc1C(F)(F)F	> 25 µM	> 25 µM	> 25 µM	> 25 µM	> 25 µM	> 25 µM	> 25 µM	> 25 µM	> 25 µM	> 25 µM	> 25 µM	> 25 µM	> 25 µM	18.7 µM	> 25 µM	> 23.6 µM	24.9 µM	> 25 µM	> 25 µM	> 25 µM
O=C1c2ccc3c4c(ccc(c24)C(=O)N1CCCCO)C(=O)N(CCCCO)C3=O	2.31 µM	–	17.4 µM	4.75 µM	5.87 µM	4.84 µM	10.5 µM	3.87 µM	21.5 µM	5.18 µM	0.408 µM	–	4.82 µM	1.12 µM	2.12 µM	1.14 µM	2.34 µM	1.45 µM	0.745 µM	0.92 µM
COc1ccc2c(c1O)[C@@]13CCCC=C1[C@@H](C2)N(C)CC3	> 100 µM	> 100 µM	> 100 µM	> 100 µM	> 100 µM	> 100 µM	> 100 µM	–	81.5 µM	> 100 µM	–	–	–	–	–	–	–	–	–	–
COc1cc(C(=O)/C=C/c2c[nH]c3ccccc23)cc(OC)c1OC	0.0488 µM	> 100 µM	4.16 µM	2.17 µM	25.3 µM	–	> 57.3 µM	0.0965 µM	13.8 µM	16.7 µM	< 0.012 µM	0.0605 µM	0.0288 µM	< 0.0191 µM	0.0713 µM	–	0.0342 µM	0.0184 µM	< 0.01 µM	0.0509 µM
